Assay results reported in publication PMC10537229, “Antimicrobial Peptides Originating from Expression Libraries of Aurelia aurita and Mnemiopsis leidyi Prevent Biofilm Formation of Opportunistic Pathogens” (Microorganisms, 2023).
“Also recorded” adds a separate entry of the source.

Assays:
K. oxytoca [1] = assay: Biofilm prevention in vitro assay (crystal violet, static); format: cell-based, Klebsiella oxytoca; conditions: 18 h; for reduction of K. oxytoca biofilm formation at 112.5 µg/mL: synthetic peptide at highest concentration 112.5 µg/mL
Method: (§1) The opportunistic pathogenic bacteria K. oxytoca (DSM 7342, M5a1-type strain), P. aeruginosa PAO1 (DSM 1707, pathogenic-type strain), S. epidermidis RP62A (DSM 28319, clinical isolate from catheter sepsis), and S. aureus (DSM 11823, clinical isolate) were grown in 5 mL LB medium overnight at below-indicated temperatures. The cell concentrations of the overnight cultures were analyzed with Neubauer cell counting and set to 3 × 10^8 cells/mL using GC minimal medium (with 1% (v/v) glycerol and 0.3% (w/v) casamino acids) for K. oxytoca and Caso bouillon (17 g/L casein peptone, 3 g/L soybean peptone, 5 g/L NaCl, 2.5 g/L K2HPO4, and 2.5 g/L glucose) for the remaining strains in the crystal violet assay. Cultures were aliquoted in 96-well plates (180/195 µL for each cavity). Cell-free size-fractionated cell extracts (20 µL) and synthesized peptides (various concentrations, 5 µL) were added to the cultures. MTPs were closed with gas-permeable membranes (Breathe-Easy®, Diversified Biotech, Dedham, MA, USA) and incubated at 37 °C (P. aeruginosa, S. aureus, and S. epidermidis) or 30 °C (K. oxytoca) for 18 h without shaking. Three biological replicates were performed, each with eight technical replicates. Medium controls were performed for normalization. Biofilm formation was monitored and quantified using the crystal violet assay. Following an 18 h incubation period, the cell cultures were removed, and the wells underwent two washes with H2O. Biofilms that developed and adhered to the surfaces were subjected to staining using 200 μL of a 0.1% crystal violet solution (Carl Roth, Karlsruhe, Germany) for 10 min at room temperature (RT). The stained biofilms were left to air dry after eliminating the crystal violet solution through two H2O washes. A total of 200 μL of 96% ethanol was introduced into each stained well to solubilize the dye, and incubation at RT for 15 min followed. Biofilm formation was assessed by measuring the absorbance of resolved crystal violet at 590 nm with the plate reader Spectra max Plus 384 (Molecular Devices, Ismaning; Germany). The screening procedure is depicted in Figure S1.

P. aeruginosa PAO1 = assay: as above; format: cell-based, Pseudomonas aeruginosa; conditions: synthetic peptide 0.4-112.5 µg/mL, 18 h
Method: as §1

S. aureus [2] = assay: as above; format: cell-based, Staphylococcus aureus; conditions: synthetic peptide 0.4-112.5 µg/mL, 18 h
Method: as §1

S. epidermidis RP62A = assay: as above; format: cell-based, Staphylococcus epidermidis; conditions: 18 h; for reduction of S. epidermidis biofilm formation over concentration range / effect on S. epidermidis biofilm formation (in words): synthetic peptide 0.4-112.5 µg/mL; for reduction of S. epidermidis biofilm formation over concentration range: maximum or range of reduction
Method: as §1

K. oxytoca [3] = assay: Growth of planktonic-growing pathogens (turbidity at 600 nm); format: cell-based, Klebsiella oxytoca; conditions: 112.5 µg/mL peptide, LB, 18 h, 80 rpm, 30 °C; mean of 2 biological x 8 technical replicates; control 1.21326667
Method: (§2) In addition, the potential growth-inhibiting effects of synthetic peptides were tested on planktonic-growing pathogens. Again, 3 × 10^8 cells/mL diluted in LB medium were aliquoted in 96-well plates (200 µL for each cavity). Synthetic peptides were added to two selected final concentrations of 3.5 µg/mL and 112.5 µg/mL at the beginning of the experiment. MTPs were closed with gas-permeable membranes and gently shaken at 80 rpm and 37 °C (P. aeruginosa, S. aureus, and S. epidermidis) or 30 °C (K. oxytoca) for 18 h. A comparative endpoint determination (growth control, peptide control IDR-1018, and identified peptides) of the turbidity at 600 nm was measured with plate reader Spectra max Plus 384. An unpaired t-test was conducted as a statistical hypothesis test to determine the significance (p-value) of growth differences.

P. aeruginosa = assay: as above; format: cell-based, Pseudomonas aeruginosa; conditions: 18 h; for turbidity (600 nm), P. aeruginosa: 112.5 µg/mL peptide, LB, 80 rpm, 37 °C, mean of 2 biological x 8 technical replicates, control 1.2788369
Method: as §2

S. aureus [4] = assay: as above; format: cell-based, Staphylococcus aureus; conditions: 18 h; for turbidity (600 nm), S. aureus: 112.5 µg/mL peptide, LB, 80 rpm, 37 °C, mean of 2 biological x 8 technical replicates, control 1.37192917
Method: as §2

S. epidermidis = assay: as above; format: cell-based, Staphylococcus epidermidis; conditions: 112.5 µg/mL peptide, LB, 18 h, 80 rpm, 37 °C; mean of 2 biological x 8 technical replicates; control 1.3398
Method: as §2

[5] = tested on: K. oxytoca, P. aeruginosa, S. epidermidis, and S. aureus; assay: Planktonic growth, statements on all pathogens; format: cell-based; conditions: 18 h; for effect on planktonic growth (in words), high concentration: 112.5 µg/mL, all strains
Method: as §2

K. oxytoca M5aI = assay: Dynamic biofilm formation in microfluidic flow cell (Syto9, CLSM); format: cell-based, Klebsiella oxytoca; conditions: peptide 10 ng/channel, GC medium, flow 15 µL/h, 24 h, 30 °C, mean ± SD of four biological x four technical replicates; for biofilm thickness: medium control 11 ± 6 µm; for biofilm volume: medium control 112 ± 62 µm^3
Description: The microfluidic flow cell system comprises a polymethyl methacrylate corpus with a single channel (1 × 8 × 0.1 mm). Two inlets and one outlet exist. A borosilicate glass (24 × 60 × 0.17 mm; Carl Roth, Karlsruhe, Germany) was fixed with the adhesive Black-Seal silicone (Weicon, Münster, Germany). Microliter syringes (Innovative Labor System GmbH, Stützenbach, Germany) were connected via polytetrafluoroethylene (PTFE) tubes (0.3 mm × 0.6 mm) (Bola, Grünsfeld, Germany) with the in- and outlets and clamped into a syringe pump (Model: 220) (KD Scientific, Holliston, MA, USA). The channel was sterilized by rinsing 70% EtOH for 24 h at a flow rate of 20 µL/h. Afterwards, the remaining ethanol was washed out with sterile water at 20 μL/h for 1 h. Subsequently, the channel was equilibrated with GC medium at 20 μL/h for 2 h. Inoculation was conducted with a cell suspension of 1 × 10^9 cells/mL, generated from an overnight culture of K. oxytoca M5aI. Initial cell adhesion was ensured by incubation at 30 °C for 1 h without any flow. Next, the channel was continuously rinsed at 15 μL/h with GC medium injected within the first inlet. The synthetic peptides IDR-1018 (biofilm-preventing control peptide, [47, 48], BiP_Aa_2, BiP_Aa_5, and BiP_Aa_6 were diluted in GC medium to a concentration of 25 µg/mL and injected within the second inlet. Thus, the final peptide concentration was 12.5 µg/mL, corresponding to 10 ng peptide within the 0.8 µL channel. Biofilm formation was conducted at a flow rate of 15 µL/h for 24 h at 30 °C. The biofilm formation of K. oxytoca M5aI was further studied without adding peptides. Four biological replicates were conducted for each treatment.
Biofilms were stained with the fluorescent dye Syto9 (488 nm) (Life Technologie, Carlsbad, CA, USA) and analyzed using the LSM 700 confocal laser scanning microscope (Zeiss, Oberkochen, Germany). Therefore, the microfluidic flow cells were washed with GC medium at 3 µL/min for 15 min. The channel was then filled with a 1:1000 dilution of the fluorescent dye Syto9 and incubated in the dark at RT for 30 min. Dye residues were removed by rinsing GC medium at 3 μL/min for 15 min. Four image stacks were recorded per flow cell with optical sections of 0.9 µm per z-step. The digital image acquisition, three-dimensional reconstruction, and calculation of the biofilm parameters were performed with the software “Zen Black” (version 14.0.22.201) (Zeiss, Oberkochen, Germany) and the microscopy image analysis software “Imaris” (version 9.9.0) (Oxford Instruments, Abingdon, UK).

biofilm cells = conditions: cited from earlier work
Method: (§3) The biofilm prevention was assayed parallel to the well-described 12 amino acids’ cationic AMP (VRLIVAVRIWRR), named IDR-1018 [19, 47, 48]. This innate defense component is derived from the natural bovine peptide Bactenecin and was reported to show antibiofilm activity against P. aeruginosa, E. coli, Acinetobacter baumannii, K. pneumoniae, Methicillin-resistant S. aureus, Salmonella Typhimurium, and Burkholderia cenocepacia. The inhibitory activity of IDR-1018 is based on the induced dispersal of cells from biofilms at very low peptide concentrations (0.8 µg/mL). The underlying ...

planktonic cells = conditions: weak direct antimicrobial activity on planktonic cells; cited from earlier work
Method: as §3

[6] = synthetic peptide 0.4-112.5 µg/mL
[7] = 112.5 µg/mL, versus control without peptide

Row | Sequence | effect on K. oxytoca biofilm formation (in words) (K. oxytoca [1]; [6]) | effect on P. aeruginosa biofilm formation (in words) (P. aeruginosa PAO1) | effect on S. aureus biofilm formation (in words) (S. aureus [2]) | reduction of S. epidermidis biofilm formation over concentration range (S. epidermidis RP62A) | turbidity (600 nm), K. oxytoca (K. oxytoca [3]) | turbidity (600 nm), P. aeruginosa (P. aeruginosa) | turbidity (600 nm), S. aureus (S. aureus [4]) | turbidity (600 nm), S. epidermidis (S. epidermidis) | effect on planktonic growth (in words), high concentration [5] | effect on S. epidermidis biofilm formation (in words) (S. epidermidis RP62A) | reduction of K. oxytoca biofilm formation at 112.5 µg/mL (K. oxytoca [1]; versus biofilm control (100%)) [%] | biofilm thickness (K. oxytoca M5aI) [µm] | biofilm volume (K. oxytoca M5aI) [µm^3] | also measured
1 | THSTMNFELHQRSIQSCSPKLL [BiP_Aa_4, synthetic peptide from sORF of A. aurita EST clone 127_8E] | limited effect | limited effect | limited effect; also recorded: could not interfere with biofilm formation | 23–47% | 1.219 | 1.281 | 1.347 | 1.386 | did not significantly inhibit planktonic growth | – | – | – | – | –
2 | GRTTLYKKVGFFFFF [BiP_Ml_3, synthetic peptide from sORF of M. leidyi EST clone 010_9A] | no significant effect | no significant effect; also recorded: slight interference | no significant effect; also recorded: could not interfere with biofilm formation | – | 1.255 | 1.255 | 1.345 | 1.367 | – | growth increase at low peptide doses | – | – | – | reduction of S. epidermidis biofilm formation at 112.5 µg/mL (S. epidermidis RP62A; synthetic peptide at highest concentration 112.5 µg/mL, versus biofilm control (100%)): 38%; reduction of planktonic growth of P. aeruginosa (P. aeruginosa; [7]): 1.5–5%; reduction of planktonic growth of S. aureus (S. aureus [4]; [7]): 1.5–5%
3 | TNFTRKFPVINSSPHQWYLKD [BiP_Aa_6, synthetic peptide from sORF of A. aurita EST clone 127_8H] | – | initially increased and then gradually decreased, approaching control levels | – | 43% | 1.2508 | 1.284 | 1.38 | 1.393 | did not significantly inhibit planktonic growth | – | 26 | ≤ 8 ± 1 | 64 ± 36 | reduction of S. aureus biofilm formation over concentration range (S. aureus [2]; maximum or overall reduction): 6–23%
4 | VRLIVAVRIWRR [IDR-1018, 12 amino acids' cationic AMP, biofilm-preventing control peptide derived from bovine Bactenecin, reference compound] | – | no interference; also recorded: almost unaffected | – | – | 1.187 | 1.23 | 1.036 | 1.203 | significantly reduced the planktonic growth of all strains | only affected to a minor extent | 70 | 6 ± 2 | 32 ± 16 | reduction of K. oxytoca biofilm formation at 3.5 µg/mL (K. oxytoca [1]; synthetic peptide 3.5 µg/mL, versus biofilm control (100%), on average): 30%; reduction of K. oxytoca biofilm formation over concentration range (K. oxytoca [1]; synthetic peptide 0.4-112.5 µg/mL, maximum or overall reduction): 50%; effect on planktonic growth (in words), low concentration ([5]; 3.5 µg/mL, all pathogens): no effect was revealed; peptide concentration causing cell death of the biofilm cells (biofilm cells; higher concentrations): 10 µg/mL; peptide concentration inducing dispersal of cells from biofilms (biofilm cells; very low peptide concentrations): 0.8 µg/mL; MIC (planktonic cells): 19 µg/mL
